Results published in patent US5861520A, “Glycolipid analogs” (Seikagaku Kogyo Kabushiki Kaisha (Seikagaku Corporation), priority 1994, dated 1999).
pIC50: −log10 of the molar value. “Also recorded” adds a separate entry of the source.

How the values were obtained:
Type in all cases: biochemical
β-galactocerebrosidase [1] = biological target: T1, β-galactocerebrosidase (Mus musculus, UniProt P54818); assay: β-galactocerebrosidase inhibition with NBD-galactocerebroside (fluorescence-labeled natural substrate), mouse brain microsome; conditions: for inhibition at 10 µM / pIC50: NBD-galactocerebroside, mouse brain microsome; for inhibition at 10 µM / inhibition of β-galactocerebrosidase activity (in words): 10 μM
T1 construct: mouse brain microsome as an enzyme source; from tissue; host or cells: mouse brain microsome
T1 sequence (P54818 43-684): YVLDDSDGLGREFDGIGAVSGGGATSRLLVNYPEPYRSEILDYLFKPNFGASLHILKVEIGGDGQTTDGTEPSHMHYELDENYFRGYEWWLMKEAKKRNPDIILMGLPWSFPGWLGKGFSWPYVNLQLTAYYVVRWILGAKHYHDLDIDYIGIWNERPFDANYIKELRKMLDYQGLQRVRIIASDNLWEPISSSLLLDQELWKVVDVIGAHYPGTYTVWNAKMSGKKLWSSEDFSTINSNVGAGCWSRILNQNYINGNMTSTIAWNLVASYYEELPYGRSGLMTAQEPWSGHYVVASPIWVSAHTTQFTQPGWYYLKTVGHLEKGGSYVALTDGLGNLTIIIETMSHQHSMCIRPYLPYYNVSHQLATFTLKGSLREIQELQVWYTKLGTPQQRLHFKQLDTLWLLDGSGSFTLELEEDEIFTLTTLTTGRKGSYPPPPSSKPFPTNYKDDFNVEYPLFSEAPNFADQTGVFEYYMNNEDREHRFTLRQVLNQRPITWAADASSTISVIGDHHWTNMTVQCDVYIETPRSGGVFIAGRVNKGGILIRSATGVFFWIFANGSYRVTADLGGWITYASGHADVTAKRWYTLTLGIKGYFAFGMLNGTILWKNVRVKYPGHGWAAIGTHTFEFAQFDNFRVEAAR
Experimental: (§1) Glycosidase inhibitory effects of glycolipid analogs (1) The inhibitory effects of each of compounds 1E, 1Z, 2E and 2Z synthesized in Examples 1 to 4 on β-glucocerebrosidase and β-galactocerebrosidase were determined by using fluorescence-labeled natural substrates, i.e., 12-[N-methyl-N-(7-nitro-2-oxa-1,3-diaxol-4-yl)]aminododecanoic acid (NBD)-glucocerebroside and NBD-galactocrebroside. Namely, the β-glucocerebrosidease activity was determined in accordance with the method of Granbowski et al. [Clin. Chim. Acta., […], 123-135 (1982)] with the use of mouse liver microsome as an enzyme source. On the other hand, the β-galactocerebrosidase activity was determined in accordance with the method of Raghavan et al. [Biochim. Biophys. Acta, 877, 1-8 (1986)] with the use of mouse brain microsome as an enzyme source. […] Each substrate was used in a constant and large excess amount over the corresponding enzyme. […] IC50 levels (the concentration necessary for inhibiting 50% of the enzyme activity) of compounds 1E and 1Z were 0.3 μM and 0.1 μM, respectively. […] The inhibition (%) was determined in accordance with the following formula. [formula]
(§2) Under the same conditions as employed above, further, the inhibitory effects of the following compound C-1 [in the formula (a), X=NH, sugar analog=glucose type] being similar to the glycolipid analogs of the present invention and the sugar analogs C-2 to C-4 represented by the following formula [synthesized by the method similar to in the synthesis of compound C-1] were examined and compared.

β-glucocerebrosidase [2] = biological target: T2, β-glucocerebrosidase (Mus musculus, UniProt P17439); assay: β-glucocerebrosidase inhibition with NBD-glucocerebroside (fluorescence-labeled natural substrate), mouse liver microsome; conditions: for inhibition at 10 µM / pIC50: NBD-glucocerebroside, mouse liver microsome; for inhibition at 10 µM / inhibition of β-glucocerebrosidase activity (in words): 10 μM; for enhancement of β-glucocerebrosidase inhibition compared with C-1 and C-3 (in words): compared with saturated analogs C-1 and C-3
T2 construct: mouse liver microsome as an enzyme source; from tissue; host or cells: mouse liver microsome
T2 sequence (P17439 20-515): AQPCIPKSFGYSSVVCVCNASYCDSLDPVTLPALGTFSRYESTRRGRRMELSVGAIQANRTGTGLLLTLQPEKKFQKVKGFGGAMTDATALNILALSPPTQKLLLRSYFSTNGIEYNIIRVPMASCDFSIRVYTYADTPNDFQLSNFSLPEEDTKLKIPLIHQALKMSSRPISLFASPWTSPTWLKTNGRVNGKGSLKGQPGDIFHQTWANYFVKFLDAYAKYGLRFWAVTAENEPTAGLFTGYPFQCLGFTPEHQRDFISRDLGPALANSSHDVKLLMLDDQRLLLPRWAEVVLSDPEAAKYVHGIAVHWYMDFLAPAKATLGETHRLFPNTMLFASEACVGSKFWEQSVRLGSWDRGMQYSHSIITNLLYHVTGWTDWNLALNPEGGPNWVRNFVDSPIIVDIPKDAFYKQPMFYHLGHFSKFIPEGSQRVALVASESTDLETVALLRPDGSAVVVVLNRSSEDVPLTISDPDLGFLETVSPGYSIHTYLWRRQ
Experimental: as §1, §2

β-galactocerebrosidase [3] = assay: β-galactocerebrosidase inhibition, 4-methyl-umbelliferyl substrate; conditions: mouse brain microsome, 4-methyl-umbelliferyl glucoside
Experimental: (§3) (2) The inhibitory effects of each of compounds 1E, 1Z, 2E and 2Z synthesized in Examples 1 to 4, the above-described compound C-1 and the following compounds C-5 and C-6 on β-glucocerebrosidase and β-galactocerebrosidase were determined by the following method. Namely, the same enzyme sources as employed in the above (1) were used, while 4-methyl-umbelliferyl glucoside was used as a substrate. The inhibition (%) and IC50 were determined in accordance with the method of Peter et al. [Clin. Chim. Acta, 60, 391-396 (1975)]. In each case, the substrate was used in a constant and large excess amount over the corresponding enzyme.

β-glucocerebrosidase [4] = biological target: T2, β-glucocerebrosidase; assay: β-glucocerebrosidase inhibition with 4-methyl-umbelliferyl glucoside as substrate; conditions: mouse liver microsome
Experimental: as §3

## CCCCCCCCCCCCC/C=C/[C@@H](O)[C@H](CN[C@@H]1C[C@H](CO)[C@@H](O)[C@H](O)[C@H]1O)NC(=O)CCCCCCCCCCCCCCC [Compound C-1, reference compound]
β-galactocerebrosidase [1]
  inhibition at 10 µM: 0%
β-glucocerebrosidase [2]
  inhibition at 10 µM: 37.3%
β-galactocerebrosidase [3]
  40 μM inhibition (%): 7%
β-glucocerebrosidase [4]
  inhibition at 40 µM: 56%

## CCCCCCCCCCCCC/C=C/[C@@H](O)[C@H](CS[C@@H]1C[C@H](CO)[C@@H](O)[C@H](O)[C@H]1O)NC(=O)CCCCCCCCCCCCCCC [Compound C-6, reference compound]
β-galactocerebrosidase [3]
  40 μM inhibition (%): 0%
β-glucocerebrosidase [4]
  inhibition at 40 µM: 0%

## CCCCCCCCCCCCC/C=C/[C@@H](O)[C@H](CN[C@@H]1C[C@H](CO)[C@H](O)[C@H](O)[C@H]1O)NC(=O)CCCCCCCCCCCCCCC [Compound C-2, reference compound]
β-galactocerebrosidase [1]
  inhibition of β-galactocerebrosidase activity (in words): slightly inhibited the β-galactocerebrosidase activity
  inhibition at 10 µM: 12.9%
β-glucocerebrosidase [2]
  inhibition at 10 µM: 0%

## CCCCCCCCCCCCC/C=C/[C@@H](O)[C@H](CN[C@@H]1C=C(CO)[C@@H](O)[C@H](O)[C@H]1O)NC(=O)CCCCCCCCCCCCCCC [Compound 1E, (2S,3R,4E)-1-[(5a-carba-β-D-xylo-hex-5-enopyranosyl)amino]-2-(hexadecanoylamino)-4-octadecen-3-ol]
β-galactocerebrosidase [1]
  inhibition at 10 µM: 0%
β-glucocerebrosidase [2]
  inhibition of β-glucocerebrosidase activity (in words): strongly and specifically inhibited the β-glucocerebrosidase activity alone; also recorded: almost completely inhibited the β-glucocerebrosidase activity
  inhibition at 10 µM: 95.2%
  pIC50: 6.52
  enhancement of β-glucocerebrosidase inhibition compared with C-1 and C-3 (in words): extremely enhanced
β-galactocerebrosidase [3]
  40 μM inhibition (%): 1%
β-glucocerebrosidase [4]
  inhibition at 40 µM: 97%
  pIC50: 6.24

## CCCCCCCCCCCCC/C=C\[C@@H](O)[C@H](CN[C@@H]1C[C@H](CO)[C@H](O)[C@H](O)[C@H]1O)NC(=O)CCCCCCCCCCCCCCC [Compound C-4, reference compound]
β-galactocerebrosidase [1]
  inhibition of β-galactocerebrosidase activity (in words): slightly inhibited the β-galactocerebrosidase activity
  inhibition at 10 µM: 15.4%
β-glucocerebrosidase [2]
  inhibition at 10 µM: 0%

## CCCCCCCCCCCCC/C=C\[C@@H](O)[C@H](CN[C@@H]1C[C@H](CO)[C@@H](O)[C@H](O)[C@H]1O)NC(=O)CCCCCCCCCCCCCCC [Compound C-3, reference compound]
β-galactocerebrosidase [1]
  inhibition at 10 µM: 2.3%
β-glucocerebrosidase [2]
  inhibition at 10 µM: 64%

## CCCCCCCCCCCCC/C=C\[C@@H](O)[C@H](CN[C@@H]1C=C(CO)[C@H](O)[C@H](O)[C@H]1O)NC(=O)CCCCCCCCCCCCCCC [Compound 2Z, (2S,3R,4Z)-1-[(5a-carba-α-L-arabino-hex-5-enopyranosyl)amino]-2-(hexadecanoylamino)-4-octadecen-3-ol]
β-galactocerebrosidase [1]
  inhibition of β-galactocerebrosidase activity (in words): strongly and specifically inhibited the β-galactocerebrosidase activity alone
  inhibition at 10 µM: 87.2%
  pIC50: 5.64
β-glucocerebrosidase [2]
  inhibition at 10 µM: 0%
β-galactocerebrosidase [3]
  40 μM inhibition (%): 92%
  pIC50: 5.73
β-glucocerebrosidase [4]
  inhibition at 40 µM: 43%

## CCCCCCCCCCCCC/C=C/[C@@H](O)[C@H](CN[C@@H]1C=C(CO)[C@H](O)[C@H](O)[C@H]1O)NC(=O)CCCCCCCCCCCCCCC [Compound 2E, (2S,3R,4E)-1-[(5a-carba-α-L-arabino-hex-5-enopyranosyl)amino]-2-(hexadecanoylamino)-4-octadecen-3-ol]
β-galactocerebrosidase [1]
  inhibition of β-galactocerebrosidase activity (in words): strongly and specifically inhibited the β-galactocerebrosidase activity alone
  inhibition at 10 µM: 92.6%
  pIC50: 5.80
β-glucocerebrosidase [2]
  inhibition at 10 µM: 0%
β-galactocerebrosidase [3]
  40 μM inhibition (%): 95%
  pIC50: 5.90
β-glucocerebrosidase [4]
  inhibition at 40 µM: 31%

## CCCCCCCCCCCCC/C=C\[C@@H](O)[C@H](CN[C@@H]1C=C(CO)[C@@H](O)[C@H](O)[C@H]1O)NC(=O)CCCCCCCCCCCCCCC [Compound 1Z, (2S,3R,4Z)-1-[(5a-carba-β-D-xylo-hex-5-enopyranosyl)amino]-2-(hexadecanoylamino)-4-octadecen-3-ol]
β-galactocerebrosidase [1]
  inhibition at 10 µM: 0%
β-glucocerebrosidase [2]
  inhibition of β-glucocerebrosidase activity (in words): strongly and specifically inhibited the β-glucocerebrosidase activity alone; also recorded: almost completely inhibited the β-glucocerebrosidase activity
  inhibition at 10 µM: 97.7%
  pIC50: 7.00
  enhancement of β-glucocerebrosidase inhibition compared with C-1 and C-3 (in words): extremely enhanced
β-galactocerebrosidase [3]
  40 μM inhibition (%): 1%
β-glucocerebrosidase [4]
  inhibition at 40 µM: 99%
  pIC50: 6.36

## CCCCCCCCCCCCC/C=C/[C@@H](O)[C@H](CO[C@@H]1C[C@H](CO)[C@@H](O)[C@H](O)[C@H]1O)NC(=O)CCCCCCCCCCCCCCC [Compound C-5, reference compound]
β-galactocerebrosidase [3]
  40 μM inhibition (%): 31%
β-glucocerebrosidase [4]
  inhibition at 40 µM: 0%
